Reference: patent US9309256B2, “Pharmaceutically active dimers linked through phenolic hydroxyl groups” (OrphoMed LLC, priority 2014, dated 2016)

What was measured:
μ opioid receptor [1] = target: T1, μ opioid receptor (Homo sapiens, UniProt P35372); conditions: briefing documents to FDA advisory committee; cited from earlier work
Target sequence in this assay (P35372 whole entry, species assumed): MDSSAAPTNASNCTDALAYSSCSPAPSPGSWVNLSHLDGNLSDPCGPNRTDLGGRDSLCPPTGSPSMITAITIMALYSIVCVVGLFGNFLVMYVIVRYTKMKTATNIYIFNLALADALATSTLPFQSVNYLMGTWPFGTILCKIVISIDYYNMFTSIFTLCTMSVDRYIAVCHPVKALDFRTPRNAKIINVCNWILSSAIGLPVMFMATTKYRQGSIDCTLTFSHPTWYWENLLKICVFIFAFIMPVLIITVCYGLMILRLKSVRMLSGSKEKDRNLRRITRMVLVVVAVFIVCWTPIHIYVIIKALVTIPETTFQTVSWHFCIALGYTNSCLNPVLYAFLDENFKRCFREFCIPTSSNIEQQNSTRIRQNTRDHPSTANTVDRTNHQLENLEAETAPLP

human liver microsomes [2] = conditions: approximately 1 μM, human liver microsomes 1 mg protein/ml, up to 1 hour
Protocol: Incubations of the dimer (e.g., 1 μM) with human liver microsomes (e.g., 1 mg protein/mL) were carried out using a Tecan Liquid Handling System (Tecan), or equivalent, at 37±1° C. in 0.2-mL incubation mixtures (final volume) containing potassium phosphate buffer (50 mM, pH 7.4), MgCl2 (3 mM) and EDTA (1 mM, pH 7.4) with and without a cofactor, NADPH-generating system, at the final concentrations indicated in a 96-well plate format. The NADPH-generating system consisted of NADP (1 mM, pH 7.4), glucose-6-phosphate (5 mM, pH 7.4) and glucose-6-phosphate dehydrogenase (1 Unit/mL). […] Zero-time incubations served as 100% value to determine percent loss of substrate. Incubations were carried out in triplicate with an exception for zero-time samples (which were incubated in quadruplicate). Zero-cofactor (no NADPH) incubations were performed at zero-time and the longest time point. The samples were subjected to centrifugation (e.g., 920×g for 10 min at 10° C.) and the supernatant fractions analyzed by LC-MS/MS. Additional incubations were carried out with microsomes and a marker substrate (e.g., dextromethorphan to monitor substrate loss) as a positive control to determine if the test system was metabolically competent.
The incubation medium was assayed by LC/MS/MS for the formation of naloxone over time.

mice = conditions: mildly stressed mice
Text: In the study a group mice were subjected to mild stress, which normally induces diarrhea and gastrointestinal motility measured by number of fecal pellets excreted per hour.

[3] = room temperature, tap water, 1N HCl or 5% aqueous sodium bicarbonate
IBS-D patients = conditions: cited from earlier work
[4] = In vivo pharmacokinetic study, oral and IV; conditions: CD-1 mice, 10 mg/kg IV and oral gavage
Protocol: Animals used in these animal pharmacokinetic studies were CD-1 mice (about 35 gms, n=3 per time point). Drugs tested were buprenorphine and the buprenorphine dimer. Dose 10 mg/kg IV and oral gavage. Blood was collected at time 0, 30 min and 1, 2, 6 and 24 hours. Blood samples for the drug were analyzed after harvesting the plasma and by LC/MS/MS as follows:
Standard curve was prepared in mouse plasma spiked with either the test drugs (10-25000 nM). Plasma samples (50 μL) were extracted in 300 μL acetonitrile containing losartan or buprenorphine-d4 as internal standard. Extracts were centrifuged at 16000×g at 4° C. for 5 minutes. Supernatants (250 μL) were transferred to a new tube and dried under N2 at 45° C. for 1 hour. Samples were reconstituted with 100 μL of 30% acetonitrile, vortexed and centrifuged. Supernatants (90 μL) were transferred to LC vials and 10 μL is injected on LC/MS.

[5] = target: T2, human δ subtype 2 opioid receptor (Homo sapiens, UniProt P41143); experiment: Human δ opioid receptor binding assay (tritiated naltrindole displacement)
T2 construct: purchased Perkin Elmer RBHODM400UA; host or cells: Chinese Hamster Ovary cells (membranes)
T2 sequence (P41143 whole entry): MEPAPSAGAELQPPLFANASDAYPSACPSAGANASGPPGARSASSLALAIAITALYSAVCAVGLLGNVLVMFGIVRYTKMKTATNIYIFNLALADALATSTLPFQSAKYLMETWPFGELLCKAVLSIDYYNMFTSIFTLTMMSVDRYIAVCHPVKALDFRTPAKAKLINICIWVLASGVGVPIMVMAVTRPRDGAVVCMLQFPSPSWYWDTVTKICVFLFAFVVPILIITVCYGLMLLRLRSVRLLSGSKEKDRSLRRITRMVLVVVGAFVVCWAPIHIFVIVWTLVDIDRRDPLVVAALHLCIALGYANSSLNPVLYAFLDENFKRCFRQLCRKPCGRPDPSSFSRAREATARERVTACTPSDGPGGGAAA
Protocol: The assay was designed to test the ability of a compound to interfere with the binding of tritiated naltrindole to the human δ subtype 2 opioid receptor. Membranes from Chinese Hamster Ovary cells expressing the human δ subtype 2 opioid receptor (Perkin Elmer #RBHODM400UA) were homogenized in assay buffer (50 mM Tris, pH 7.5 with 5 mM MgCl2) using a glass tissue grinder, Teflon pestle and Steadfast Stirrer (Fisher Scientific). The concentration of membranes was adjusted to 100 μg/mL in the assay plate, a 96 well round bottom polypropylene plate. Compounds to be tested were solubilized in DMSO, 10 mM, then diluted in assay buffer to 6× the desired final concentration. The ligand, ^3H-natrindole (Perkin Elmer #NET-1065) was also diluted in assay buffer to 6 nM. Aliquots of ^3H-natrindole (50 μL) were transferred to the assay plate containing the membranes in duplicate. The assay plate was incubated for 30 minutes at room temperature. A GF/C 96 well filter plate (Perkin Elmer #6005174) was pretreated with 0.3% polyethylenimine for 30 min. The contents of the assay plate were filtered through the filter plate using a Packard Filtermate Harvester, and washed 3 times with 0.9% saline at 4° C. The filter plate was dried, the underside sealed, and a 30 μL MictoS=scint 20 (Packard #6013621) was added to each well. A Topcount-NXT Microplate Scintillation Counter (Packard) was used to measure emitted energies in the range of 2.9 to 35 KeV. Results are compared to maximum binding, wells receiving no inhibitors. Nonspecific binding was determined in the presence of 1 μM unlabelled Natrindole. […] Relative to the μ and κ opioid receptors, the dimer has poor affinity for the δ receptor.

male CD-1 mice [6] = experiment: Stress-induced fecal output; type: in vivo
Text: The animals used in the studies were male CD-1 mice, average weight about 30 to 35 g, with an average of 5 mice per dose group. The mice were generally housed in colony housing where they are housed 3 per cage in polycarbonate cages with access to food and water ad lib.
On the day of the experiment the mice were transported to the procedure room where they were individually housed in 20 cm wide×20 cm deep×15 cm tall cages, equipped with a wire mesh bottom after intragastric administration of test compounds. During the test the animals were allowed access to water only ad lib. The wire mesh bottomed tall cage creates a novel environment which induces stress in mice. The number of pellets excreted was determined on an hourly basis.

μ opioid receptor [7] = target: T1, μ opioid receptor; experiment: Human μ opioid receptor binding assay (3H-Naloxone displacement); design: purchased Perkin Elmer RBHOMM400UA; host or cells: Chinese Hamster Ovary cells (membranes); conditions: FIG. 9
Target sequence in this assay (P35372 whole entry): as the sequence (P35372 whole entry, species assumed) above
Protocol: Membranes from Chinese Hamster Ovary cells expressing the human μ opioid receptor (Perkin Elmer #RBHOMM400UA) were homogenized in assay buffer (50 mM Tris, pH 7.5 with 5 mM MgCl2) using glass tissue grinder, Teflon pestle and Steadfast Stirrer (Fisher Scientific). The concentrates of the membranes were adjusted to 300 μg/mL in assay plate, a 96 well round bottom polypropylene plate. […] From the premix plate 50 μL was transferred to the assay plate containing the membranes, in duplicate. The assay plate was incubated for 2 h at room temperature. […] The contents of the assay plate were filtered through the filter plate using a Packard Filtermate Harvester, and washed 3 times with 0.9% saline at 4° C. […] A Topcount-NXT Microplate Scintillation Counter (Packard) was used to measure emitted energies in the range of 2.9 to 35 KeV. Results were compared to maximum binding, wells receiving no inhibitions.

[8] = Stress stability assay of the buprenorphine dimer (tap water, acid, base, heat); type: physicochemical; conditions: 1N HCl, 5% aqueous sodium bicarbonate, room temperature and 140° F., up to 30 minutes
Protocol: This study facilitated the understanding of the ease with which a potential abuser could cleave the dimer using household chemicals such as baking soda, acid or simple heating in water. Buprenorphine dimer stability was assessed at room temperature in untreated tap water and in presence of acid (1N HCl) or base (5% aqueous sodium bicarbonate).

human μ receptors [9] = target: T3, human μ receptors (Homo sapiens, UniProt P35372); experiment: μ opioid receptor agonist functional assay: [35S]GTPγS binding in CHO-hMOR cell membranes; type: biochemical; conditions: FIG. 11
T3 construct: purchased Receptor Biology Inc. (Baltimore Md.); host or cells: CHO-hMOR cell membranes
T3 sequence (P35372 whole entry): as the sequence (P35372 whole entry, species assumed) above
Protocol: (§1) This example illustrates the ability of the buprenorphine dimer provided herein to stimulate the p-opioid receptor-mediated signaling. Briefly, CHO-hMOR cell membranes were purchased from Receptor Biology Inc. (Baltimore Md.). About 10 mg/ml of membrane protein was suspended in 10 mM TRIS-HCl pH 7.2, 2 mM EDTA, 10% sucrose, and the suspension kept on ice. One mL of membranes was added to 15 mL cold binding assay buffer containing 50 mM HEPES, pH 7.6, 5 mM MgCl2, 100 mM NaCl, 1 mM DTT and 1 mM EDTA. The membrane suspension was homogenized with a polytron and centrifuged at 3000 rpm for 10 min. The supernatant was then centrifuged at 18,000 rpm for 20 min. The pellet was resuspended in 10 mL assay buffer with a polytron. […]
(§2) The buprenorphine dimer was tested for function as an antagonist by evaluating its potential to inhibit agonist-stimulated GTPγS binding using D-Phe-Cys-Tyr-D-Trp-Orn-Thr-Pen-Thr-NH2 (CTOP) as the standard. Radioactivity was quantified on a Packard Top Count. The following parameters are calculated: % Stimulation=[(test compound cpm−non-specific cpm)/(basal cpm−non-specific cpm)]*100 % Inhibition=(% stimulation by 1 μM SNC80−% stimulation by 1 μM SNC80 in presence of test compound)*100/(% stimulation by 1 μM SNC80−100).
(§3) EC50 was calculated using GraphPad Prism.

human μ receptors [10] = target: T3, human μ receptors; experiment: μ opioid receptor antagonist functional assay: [35S]GTPγS binding in CHO-hMOR cell membranes; type: biochemical; conditions: inhibition of agonist-stimulated GTPγS binding, FIG. 12
Protocol: as §1, §2, §3

male CD-1 mice [11] = experiment: Effect on post-inflammatory altered GI transit time (mustard oil); type: in vivo; conditions: 25 mg per kg oral, mustard oil treated mice
Protocol: This test was designed to measure the effect of test substance on gastrointestinal hypersensitivity following inflammation. Post-inflammatory altered GI transit was induced in male CD-1 mice by injecting freshly opened oil of mustard (95% pure allyl isothiocyanate, 0.5% in ethanol). The effect of stress on the post-inflammatory GI tract was tested 3-4 weeks after dosing. […] The effect of the test substance was measured after oral administration (intragastric gavage) and subjecting animals to environmental stress by housing them in cages (20 cm wide×20 cm deep×15 cm tall), equipped with a wire mesh bottom. During the test the animals were allowed access to water ad lib. The wire mesh bottomed tall cage creates a novel environment which induces stress in mice. The number of pellets excreted is determined on hourly to two-hourly basis.

human liver microsomes [12] = experiment: Metabolic stability of buprenorphine dimer in human liver microsomes; conditions: 1 μM, human liver microsomes 1 mg protein/mL, 37 °C, with or without NADPH co-factor, up to 2 hours
Protocol: Incubations of the dimer (e.g., 1 μM) with human liver microsomes (e.g., 1 mg protein/mL) were carried out using a Tecan Liquid Handling System (Tecan), or equivalent, at 37±1° C. in 0.2-mL incubation mixtures (final volume) containing potassium phosphate buffer (50 mM, pH 7.4), MgCl2 (3 mM) and EDTA (1 mM, pH 7.4) with and without a cofactor, NADPH-generating system, at the final concentrations indicated in a 96-well plate format. The NADPH-generating system consisted of NADP (1 mM, pH 7.4), glucose-6-phosphate (5 mM, pH 7.4) and glucose-6-phosphate dehydrogenase (1 Unit/mL). The buprenorphine dimer was dissolved in aqueous methanolic solution (methanol 0.5% v/v, or less). […] Zero-time incubations served as 100% value to determine percent loss of substrate. […] The samples were subjected to centrifugation (e.g., 920×g for 10 min at 10° C.) and the supernatant fractions analyzed by LC-MS/MS. […]
The above samples were analyzed by an LC-MS/MS method. […] Results were determined by a comparison of peak ratios over the time course of the experiment (typically reported as “% Parent Remaining”).
Data were calculated with a LIMS (includes Galileo, Thermo Fisher Scientific Inc. and reporting tool, Crystal Reports, SAP), the spreadsheet computer program Microsoft Excel (Microsoft Corp.) or equivalent. […]

C[N@+]1(CC2CC2)CC[C@]23c4c5ccc(O)c4O[C@H]2C(=O)CC[C@@]3(O)[C@H]1C5 [Methylnaltrexone Bromide]
Ki (μ opioid receptor [1]): 42 nM

C=CCN1CC[C@]23c4c5ccc(OCCOc6ccc7c8c6O[C@H]6C(=O)CC[C@@]9(O)[C@@H](C7)N(CC=C)CC[C@]869)c4O[C@H]2C(=O)CC[C@@]3(O)[C@H]1C5 [naloxone dimer]
formation of naloxone over time (human liver microsomes [2]): no evidence of formation naloxone over time | reversal of loperamide-induced constipation (fecal pellets excreted per hour) (mice; comparable to control by hour 3 or later): reversed the constipating effects | stability / degradation to naloxone [3]: does not appreciably degrade to naloxone

COc1ccc(CN(C(=O)[C@@H](N)Cc2c(C)cc(C(N)=O)cc2C)[C@@H](C)c2ncc(-c3ccccc3)[nH]2)cc1C(=O)O [Eluxadoline]
pancreatitis cases (IBS-D patients; Phase II trials): several cases of pancreatitis | Phase III efficacy endpoints (IBS-D patients; Phase III testing, IBS-D): met primary endpoints of improvement in stool consistency and reduction of abdominal pain

CO[C@]12CC[C@@]3(C[C@@H]1[C@](C)(O)C(C)(C)C)[C@H]1Cc4ccc(O)c5c4[C@@]3(CCN1CC1CC1)[C@H]2O5 [buprenorphine, Buprenorphine, reference compound]
absolute bioavailability (ratio of the area under the concentration curve after oral and IV dose) [4]: about 30%

CN(C)C(=O)C(CCN1CCC(O)(c2ccc(Cl)cc2)CC1)(c1ccccc1)c1ccccc1 [loperamide, reference compound]
number of pellets expelled versus control (vehicle) animals (mice): significantly less

CO[C@]12CC[C@@]3(C[C@@H]1[C@](C)(O)C(C)(C)C)[C@H]1Cc4ccc(OCCOc5ccc6c7c5O[C@H]5[C@@]8(OC)CC[C@@]9(C[C@@H]8[C@](C)(O)C(C)(C)C)[C@@H](C6)N(CC6CC6)CC[C@]759)c5c4[C@@]3(CCN1CC1CC1)[C@H]2O5 [buprenorphine dimer]
IC50 [5]: 7.6 nM | Ki [5]: 2.87 nM | affinity for the δ receptor relative to the μ and κ opioid receptors [5]: poor affinity | dose dependence of fecal output (male CD-1 mice [6]; FIG. 15): decreases with dose | fecal output versus placebo (vehicle) (male CD-1 mice [6]; oral, 25 and 50 mg per kg, stressed male CD-1 mice): significantly reduced the fecal output | affinity for the opioid μ receptor (μ opioid receptor [7]): significant affinity | stability / degradation to buprenorphine [8]: remained stable and did not degrade to release buprenorphine | μ agonist function (human μ receptors [9]): potent μ agonist | μ antagonist function (human μ receptors [10]): does not function as a μ-antagonist | gastrointestinal motility as measured by fecal output (male CD-1 mice [11]): significantly decreases gastrointestinal motility | gastrointestinal motility as measured by fecal output at 2 hours (male CD-1 mice [11]; 2 hours): continues to inhibit gastrointestinal motility with statistically significant results | stability in presence of microsomal enzymes (% Parent Remaining) (human liver microsomes [12]): relatively stable | absolute bioavailability (ratio of the area under the concentration curve after oral and IV dose) [4]: ≤ 1%
